According to PubChem BioAssay (NCI):
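Values below derive from 48-hour exposures of cells grown in 96-well plates, with endpoints linearly interpolated between the two concentrations bracketing the appropriate inhibition level. Here, GI50 denotes the concentration required for 50% inhibition of growth. At the TGI there is no net growth.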

Legend:
Experiment in all cases: growth of human tumour cells (NCI), 48 h
[1] = tested on: 786-0 renal
[2] = tested on: A498 renal
[3] = tested on: A549 NSCLC
[4] = tested on: ACHN renal
[5] = tested on: BT-549 breast
[6] = tested on: CAKI-1 renal
[7] = tested on: CCRF-CEM leukemia
[8] = tested on: COLO 205 colon
[9] = tested on: DU-145 prostate
[10] = tested on: EKVX NSCLC
[11] = tested on: HCC-2998 colon
[12] = tested on: HCT-116 colon
[13] = tested on: HCT-15 colon
[14] = tested on: HL-60(TB) leukemia
[15] = tested on: HOP-62 NSCLC
[16] = tested on: HOP-92 NSCLC
[17] = tested on: HS 578T breast
[18] = tested on: HT29 colon
[19] = tested on: IGROV1 ovarian
[20] = tested on: K-562 leukemia
[21] = tested on: KM12 colon
[22] = tested on: LOX IMVI melanoma
[23] = tested on: M14 melanoma
[24] = tested on: MALME-3M melanoma
[25] = tested on: MCF7 breast
[26] = tested on: MDA-MB-231 breast
[27] = tested on: MDA-MB-435
[28] = tested on: MOLT-4 leukemia
[29] = tested on: NCI-H226 lung
[30] = tested on: NCI-H23 lung
[31] = tested on: NCI-H460 lung
[32] = tested on: NCI-H522 lung
[33] = tested on: NCI/ADR-RES ovarian
[34] = tested on: OVCAR-3 ovarian
[35] = tested on: OVCAR-4 ovarian
[36] = tested on: OVCAR-5 ovarian
[37] = tested on: OVCAR-8 ovarian
[38] = tested on: PC-3 prostate
[39] = tested on: RPMI-8226 leukemia
[40] = tested on: SF-268 CNS
[41] = tested on: SF-295 CNS
[42] = tested on: SF-539 CNS
[43] = tested on: SK-MEL-2 melanoma
[44] = tested on: SK-MEL-28 melanoma
[45] = tested on: SK-MEL-5 melanoma
[46] = tested on: SK-OV-3 ovarian
[47] = tested on: SN12C renal
[48] = tested on: SNB-19 CNS
[49] = tested on: SR leukemia
[50] = tested on: SW-620 colon
[51] = tested on: T-47D breast
[52] = tested on: TK-10 renal
[53] = tested on: U251 CNS
[54] = tested on: UACC-257 melanoma
[55] = tested on: UACC-62 melanoma
[56] = tested on: UO-31 renal
[57] = tested on: SNB-75 CNS

O=C1CSC(c2cccc([N+](=O)[O-])c2)N1c1ccc(-c2ccc(-n3c(-c4ccccc4)nc4ccccc4c3=O)cc2)cc1 (stereo not drawn)
TGI [1]: > 100000 nM | TGI [2]: > 100 µM | TGI [3]: > 100 µM | TGI [4]: > 100 µM | TGI [5]: 98.3 µM | TGI [6]: > 100 µM | TGI [7]: 91.9 µM | TGI [8]: > 100 µM | TGI [9]: > 100 µM | TGI [10]: > 100 µM | TGI [11]: > 100 µM | TGI [12]: > 100000 nM | TGI [13]: > 100 µM | TGI [14]: > 100 µM | TGI [15]: > 100000 nM | TGI [16]: > 100 µM | TGI [17]: > 100 µM | TGI [18]: > 100 µM | TGI [19]: > 100 µM | TGI [20]: > 100 µM | TGI [21]: 81 µM | TGI [22]: > 100000 nM | TGI [23]: > 100000 nM | TGI [24]: > 100 µM | TGI [25]: 92.6 µM | TGI [26]: > 100 µM | TGI [27]: > 100 µM | TGI [28]: > 100 µM | TGI [29]: > 100 µM | TGI [30]: > 100 µM | TGI [31]: > 100 µM | TGI [32]: > 100 µM | TGI [33]: > 100 µM | TGI [34]: > 100 µM | TGI [35]: > 100 µM | TGI [36]: > 100 µM | TGI [37]: > 100 µM | TGI [38]: > 100 µM | TGI [39]: > 100000 nM | TGI [40]: > 100 µM | TGI [41]: > 100 µM | TGI [42]: > 100000 nM | TGI [43]: > 100 µM | TGI [44]: > 100 µM | TGI [45]: > 100 µM | TGI [46]: > 100 µM | TGI [47]: > 100 µM | TGI [48]: > 100 µM | TGI [49]: > 100 µM | TGI [50]: > 100 µM | TGI [51]: > 100 µM | TGI [52]: > 100 µM | TGI [53]: > 100 µM | TGI [54]: > 100 µM | TGI [55]: > 100 µM | TGI [56]: > 100 µM

O=C1c2ccccc2-c2c1c1ccc([N+](=O)[O-])cc1c(=O)n2CCCN1CCOCC1
GI50 [1]: 135 nM | TGI [1]: 2320 nM | GI50 [2]: > 38.8 µM | TGI [2]: > 92.4 µM | GI50 [3]: 9.37 µM | TGI [3]: > 100 µM | GI50 [4]: 128 nM | GI50 [5]: 311 nM | TGI [5]: 16.7 µM | GI50 [6]: 232 nM | TGI [6]: > 100 µM | GI50 [7]: 22.4 nM | TGI [7]: 0.121 µM | GI50 [8]: 7.92 µM | TGI [8]: > 100 µM | GI50 [9]: 84 nM | TGI [9]: 3.09 µM | GI50 [10]: 20.9 µM | TGI [10]: > 92.7 µM | GI50 [11]: > 41 µM | TGI [11]: > 100 µM | GI50 [12]: 85.1 nM | TGI [12]: 1810 nM | GI50 [13]: 396 nM | TGI [13]: > 100 µM | GI50 [14]: 147 nM | TGI [14]: > 100 µM | GI50 [15]: 48.6 nM | TGI [15]: 346 nM | TGI [16]: > 41.1 µM | GI50 [17]: 5.97 µM | TGI [17]: > 56.7 µM | GI50 [19]: 238 nM | TGI [19]: > 100 µM | GI50 [20]: 324 nM | TGI [20]: > 100 µM | GI50 [21]: 258 nM | TGI [21]: > 100 µM | GI50 [22]: 81.3 nM | TGI [22]: 338 nM | GI50 [23]: 122 nM | TGI [23]: 495 nM | GI50 [24]: 268 nM | TGI [24]: 24.7 µM | GI50 [25]: < 16.6 nM | TGI [25]: > 100 µM | GI50 [26]: 24.8 µM | TGI [26]: > 87.4 µM | GI50 [27]: 867 nM | TGI [27]: > 100 µM | GI50 [28]: 62.5 nM | TGI [28]: > 100 µM | GI50 [29]: > 34.3 µM | TGI [29]: > 64.8 µM | GI50 [30]: 160 nM | GI50 [31]: 193 nM | TGI [31]: > 100 µM | GI50 [32]: 424 nM | TGI [32]: > 100 µM | GI50 [33]: 293 nM | TGI [33]: 24.8 µM | GI50 [34]: 12.4 µM | TGI [34]: 29.9 µM | GI50 [35]: 776 nM | TGI [35]: > 48.3 µM | GI50 [36]: 13 µM | TGI [36]: > 100 µM | GI50 [37]: 320 nM | TGI [37]: > 100 µM | GI50 [38]: 291 nM | TGI [38]: > 100 µM | GI50 [39]: 138 nM | TGI [39]: 521 nM | GI50 [40]: 114 nM | TGI [40]: > 100 µM | GI50 [41]: 182 nM | TGI [41]: 31.8 µM | GI50 [42]: 119 nM | TGI [42]: 415 nM | GI50 [43]: > 61.2 µM | TGI [43]: > 100 µM | GI50 [44]: > 100 µM | TGI [44]: > 100 µM | GI50 [46]: 6.57 µM | TGI [46]: > 100 µM | GI50 [47]: 333 nM | TGI [47]: > 100 µM | GI50 [48]: 378 nM | TGI [48]: > 52.6 µM | GI50 [57]: 1010 nM | TGI [57]: > 100 µM | GI50 [49]: 13.9 nM | TGI [49]: > 100 µM | GI50 [50]: 160 nM | TGI [50]: > 100 µM | GI50 [51]: 97.1 nM | TGI [51]: > 100 µM | GI50 [52]: 25.2 µM | TGI [52]: > 100 µM | GI50 [53]: 92.3 nM | TGI [53]: 15.8 µM | GI50 [54]: 19.6 µM | TGI [54]: > 100 µM | GI50 [55]: 403 nM | TGI [55]: > 100 µM | GI50 [56]: 195 nM | TGI [56]: > 100 µM
